Here are results for one compound from ChEMBL document CHEMBL1649511, “Reduction of amphotericin B-induced renal tubular apoptosis by N-acetylcysteine” (2009).

Common to all, as to type: functional
Common to all, as to parameters: scale not given: the % may be the effect or the level left
What all share (details): route intraperitoneal

Assay [1] deals with Rattus norvegicus. Kind of assay: Inhibition of amphotericin B-induced renal tubular apoptosis in Sprague-Dawley rat assessed as apoptotic index at 30 mg/kg, ip BID measured post last dose.
For assay [2], the system named is Rattus norvegicus. Kind of assay: Inhibition of amphotericin B-induced renal tubular apoptosis in Sprague-Dawley rat assessed as apoptotic index at 60 mg/kg, ip BID measured post last dose.
For assay [3], the system named is Rattus norvegicus. Kind of assay: Inhibition of amphotericin B-induced renal tubular apoptosis in Sprague-Dawley rat assessed as apoptotic index at 120 mg/kg, ip BID measured post last dose.

In the case of `CC(=O)N[C@@H](CS)C(=O)O` [ACETYLCYSTEINE], the Activity is on record as 27.4% in the assay with Rattus norvegicus [1], 23.6% in the assay with Rattus norvegicus [2] and 23.5% in the assay on Rattus norvegicus [3].
